From article PMC4097020 (Psychopharmacology, 2014)
Where two headings read alike, the source gives them in different places. Marks after values point to notes of the source that are not given here.

How the values were obtained:
[1] = target: T1, recombinant human D2 receptor (Homo sapiens, UniProt P14416); assay: cell-based; assay type: cell-based
[2] = target: T2, recombinant human 5-HT2C receptor (Homo sapiens, UniProt P28335); assay: biochemical; assay type: binding
T2 sequence (P28335 33-458): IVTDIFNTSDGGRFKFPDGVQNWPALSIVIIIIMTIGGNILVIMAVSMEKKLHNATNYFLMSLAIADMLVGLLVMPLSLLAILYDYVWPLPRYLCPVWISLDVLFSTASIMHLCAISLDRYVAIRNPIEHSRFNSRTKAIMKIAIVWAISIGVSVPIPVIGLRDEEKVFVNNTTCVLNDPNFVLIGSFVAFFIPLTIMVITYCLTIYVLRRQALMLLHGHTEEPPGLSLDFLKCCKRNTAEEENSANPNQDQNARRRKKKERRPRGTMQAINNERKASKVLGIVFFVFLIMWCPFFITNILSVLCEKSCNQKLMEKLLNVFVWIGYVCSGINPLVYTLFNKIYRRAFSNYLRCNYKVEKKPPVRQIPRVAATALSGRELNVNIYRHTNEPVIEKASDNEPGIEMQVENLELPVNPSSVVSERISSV

h5-HT2A receptor [3] = target: T3, h5-HT2A receptor (Homo sapiens, UniProt P28223); assay type: binding
h5-HT2A receptor [4] = target: T3, h5-HT2A receptor; assay: IP-1 formation in HEK-h5-HT2A cells; assay type: cell-based; conditions: for agonist character at h5-HT2A receptor, IP-1 formation (in words): compared to 5-HT
h5-HT2A receptor [5] = target: T3, h5-HT2A receptor; assay type: binding; remark: listed apart in the source
[6] = test system: nontransfected HEK-293 cells; assay: IP-1 accumulation in nontransfected HEK-293 cells; assay type: cell-based, human; conditions: (+)mefloquine 100 μM, 5-HT 1 μM, LSD 10 nM
[7] = target: T4, recombinant human 5-HT1A receptor (Homo sapiens, UniProt P08908); assay: [3H]8-OH-DPAT binding to HEK-h5-HT1A cell membranes
T4 sequence (P08908 1-422): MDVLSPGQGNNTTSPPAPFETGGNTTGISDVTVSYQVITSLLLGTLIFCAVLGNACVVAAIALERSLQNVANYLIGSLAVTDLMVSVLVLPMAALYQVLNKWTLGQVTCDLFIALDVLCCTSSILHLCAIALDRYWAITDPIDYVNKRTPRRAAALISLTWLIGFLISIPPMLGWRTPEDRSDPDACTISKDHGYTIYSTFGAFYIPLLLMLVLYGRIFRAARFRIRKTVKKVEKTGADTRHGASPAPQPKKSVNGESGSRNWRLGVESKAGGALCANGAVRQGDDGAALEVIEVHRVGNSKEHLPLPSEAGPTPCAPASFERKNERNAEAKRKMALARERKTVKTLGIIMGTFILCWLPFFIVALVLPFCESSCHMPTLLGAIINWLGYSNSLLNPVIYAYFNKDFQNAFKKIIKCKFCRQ

[8] = target: recombinant human 5-HT2A receptor (Homo sapiens, UniProt P28223); assay: [125I]DOI binding to HEK-h5-HT2A cell membranes
human D4.4 receptor = target: T5, human D4.4 receptor (Homo sapiens, UniProt P21917); assay: biochemical; assay type: binding
T5 sequence (P21917 1-419): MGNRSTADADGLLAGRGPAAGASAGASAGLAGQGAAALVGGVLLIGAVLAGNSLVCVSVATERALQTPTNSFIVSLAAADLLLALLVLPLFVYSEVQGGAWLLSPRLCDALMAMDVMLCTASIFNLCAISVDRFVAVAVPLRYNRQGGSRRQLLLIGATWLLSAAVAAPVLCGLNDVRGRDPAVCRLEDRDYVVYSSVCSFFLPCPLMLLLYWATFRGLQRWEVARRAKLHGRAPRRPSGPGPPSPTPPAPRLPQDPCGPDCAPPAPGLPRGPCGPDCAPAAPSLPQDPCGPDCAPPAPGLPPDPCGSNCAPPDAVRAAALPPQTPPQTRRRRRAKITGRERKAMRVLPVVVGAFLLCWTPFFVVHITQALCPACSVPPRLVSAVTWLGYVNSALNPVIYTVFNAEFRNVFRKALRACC

[9] = target: T6, recombinant human D3 receptor (Homo sapiens, UniProt P35462); conditions: for agonist activity at hD3 receptor, mitogenesis (in words): compared to quinpirole
[10] = target: T1, recombinant human D2 receptor; assay: biochemical; assay type: binding
[11] = target: T6, recombinant human D3 receptor; assay: [3H]YM 09151-2 binding to CHOp-D3 cells
h5-HT2C receptor = target: T7, h5-HT2C receptor (Homo sapiens, UniProt P28335); assay: cell-based
T7 sequence (P28335 33-458): T2 sequence (P28335 33-458)

[12] = prophylactic use; from 8.7 to 14 mg/kg with free/whole brain ratio […]
[13] = varies by preparation, ref Wiedekam et al., 1998, cited from earlier work
[14] = target: recombinant human D1 receptor (Homo sapiens, UniProt P21728); assay: [3H]SCH23390 binding to LhD1 cells; conditions: read-out: D1 [3H]SCH23390 Ki (nM) ± SEM
[15] = target: T8, recombinant human norepinephrine transporter (Homo sapiens, UniProt P23975); assay: biochemical; assay type: binding
[16] = target: T9, recombinant human dopamine transporter (Homo sapiens, UniProt Q01959); assay: [3H]dopamine uptake by HEK-hDAT cells; assay type: cell-based
[17] = target: T9, recombinant human dopamine transporter; assay: [125I]RTI-55 binding to HEK-hDAT cells
[18] = target: T8, recombinant human norepinephrine transporter; assay: cell-based
[19] = read-out: h5-HT2C [125I]DOI Ki (nM) ± SEM, HEK-h5-HT2C membranes
[20] = read-out: D4.4 [3H]YM 09151-2 Ki, in μM
[21] = read-out: D2 [3H]YM 09151-2 Ki, in μM

T6 sequence (P35462 whole entry): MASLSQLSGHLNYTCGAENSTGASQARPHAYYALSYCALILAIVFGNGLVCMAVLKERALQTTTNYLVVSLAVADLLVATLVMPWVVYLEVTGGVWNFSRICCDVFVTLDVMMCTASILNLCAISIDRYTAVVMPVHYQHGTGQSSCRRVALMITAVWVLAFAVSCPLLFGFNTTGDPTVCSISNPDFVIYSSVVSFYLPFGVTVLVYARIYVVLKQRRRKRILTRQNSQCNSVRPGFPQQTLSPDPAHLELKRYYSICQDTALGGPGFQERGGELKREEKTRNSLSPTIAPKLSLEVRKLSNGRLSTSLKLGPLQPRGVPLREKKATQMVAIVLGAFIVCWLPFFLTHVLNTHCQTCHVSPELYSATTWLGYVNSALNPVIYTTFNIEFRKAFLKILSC
T8 sequence (P23975 whole entry): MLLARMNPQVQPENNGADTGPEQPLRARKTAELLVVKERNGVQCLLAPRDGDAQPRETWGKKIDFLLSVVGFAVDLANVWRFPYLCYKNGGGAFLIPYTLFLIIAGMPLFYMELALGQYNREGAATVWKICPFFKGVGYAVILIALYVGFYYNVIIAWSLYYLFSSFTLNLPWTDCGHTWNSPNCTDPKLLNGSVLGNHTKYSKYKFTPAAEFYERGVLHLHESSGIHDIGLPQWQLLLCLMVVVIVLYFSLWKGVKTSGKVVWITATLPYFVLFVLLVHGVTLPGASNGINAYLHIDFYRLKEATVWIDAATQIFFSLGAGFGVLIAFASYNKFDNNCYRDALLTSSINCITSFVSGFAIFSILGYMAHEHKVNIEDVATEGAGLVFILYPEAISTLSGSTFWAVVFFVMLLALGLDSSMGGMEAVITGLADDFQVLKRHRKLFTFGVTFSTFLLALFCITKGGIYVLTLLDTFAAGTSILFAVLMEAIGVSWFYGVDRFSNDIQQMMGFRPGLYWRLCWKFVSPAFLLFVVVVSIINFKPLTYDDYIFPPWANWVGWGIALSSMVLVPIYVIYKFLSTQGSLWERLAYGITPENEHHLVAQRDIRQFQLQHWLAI
T1 sequence (P14416 whole entry): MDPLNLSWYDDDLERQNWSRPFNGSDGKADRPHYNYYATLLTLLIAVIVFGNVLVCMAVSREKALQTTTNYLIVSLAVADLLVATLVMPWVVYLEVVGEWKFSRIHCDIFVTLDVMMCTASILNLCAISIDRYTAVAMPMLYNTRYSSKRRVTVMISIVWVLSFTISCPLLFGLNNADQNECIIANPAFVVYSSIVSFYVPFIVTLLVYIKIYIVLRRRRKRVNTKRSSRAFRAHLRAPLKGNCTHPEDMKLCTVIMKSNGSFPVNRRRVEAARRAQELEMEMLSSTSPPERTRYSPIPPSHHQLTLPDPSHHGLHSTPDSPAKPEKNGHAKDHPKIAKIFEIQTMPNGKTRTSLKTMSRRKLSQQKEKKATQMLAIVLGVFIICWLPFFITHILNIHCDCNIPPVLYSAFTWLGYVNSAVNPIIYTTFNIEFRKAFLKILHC
T3 sequence (P28223 whole entry): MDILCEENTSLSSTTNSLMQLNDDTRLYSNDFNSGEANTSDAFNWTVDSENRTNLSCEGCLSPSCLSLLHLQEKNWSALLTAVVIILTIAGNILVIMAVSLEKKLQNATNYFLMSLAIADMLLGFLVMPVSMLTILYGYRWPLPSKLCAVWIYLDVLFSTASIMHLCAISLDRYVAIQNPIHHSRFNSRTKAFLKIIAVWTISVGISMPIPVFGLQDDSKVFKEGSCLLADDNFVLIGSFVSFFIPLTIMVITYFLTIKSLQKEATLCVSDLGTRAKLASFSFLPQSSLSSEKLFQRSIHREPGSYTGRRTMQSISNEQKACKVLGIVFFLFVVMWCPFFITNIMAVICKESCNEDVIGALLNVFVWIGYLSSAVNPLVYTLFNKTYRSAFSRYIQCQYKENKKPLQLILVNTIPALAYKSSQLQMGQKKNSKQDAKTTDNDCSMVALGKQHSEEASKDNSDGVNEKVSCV
T9 sequence (Q01959 whole entry): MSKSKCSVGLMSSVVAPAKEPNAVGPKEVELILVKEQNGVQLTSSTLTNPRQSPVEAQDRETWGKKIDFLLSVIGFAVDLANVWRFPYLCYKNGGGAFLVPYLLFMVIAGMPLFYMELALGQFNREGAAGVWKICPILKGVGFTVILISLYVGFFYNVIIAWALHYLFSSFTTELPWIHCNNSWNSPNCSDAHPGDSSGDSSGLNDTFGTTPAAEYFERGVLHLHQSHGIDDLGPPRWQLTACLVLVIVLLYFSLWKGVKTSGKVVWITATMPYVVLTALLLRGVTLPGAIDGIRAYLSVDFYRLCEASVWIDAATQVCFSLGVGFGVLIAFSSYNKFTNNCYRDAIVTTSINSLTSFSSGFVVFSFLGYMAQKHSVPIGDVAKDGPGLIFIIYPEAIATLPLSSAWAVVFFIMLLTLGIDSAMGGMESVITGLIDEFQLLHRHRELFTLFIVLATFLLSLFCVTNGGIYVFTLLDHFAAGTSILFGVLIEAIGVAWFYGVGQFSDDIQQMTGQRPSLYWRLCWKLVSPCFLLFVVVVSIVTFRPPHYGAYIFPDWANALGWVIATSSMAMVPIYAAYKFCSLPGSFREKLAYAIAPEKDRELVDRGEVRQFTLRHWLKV
Sequence of recombinant human 5-HT2A receptor (P28223 whole entry): as the sequence (P28223 whole entry) above
Sequence of recombinant human D1 receptor (P21728 whole entry): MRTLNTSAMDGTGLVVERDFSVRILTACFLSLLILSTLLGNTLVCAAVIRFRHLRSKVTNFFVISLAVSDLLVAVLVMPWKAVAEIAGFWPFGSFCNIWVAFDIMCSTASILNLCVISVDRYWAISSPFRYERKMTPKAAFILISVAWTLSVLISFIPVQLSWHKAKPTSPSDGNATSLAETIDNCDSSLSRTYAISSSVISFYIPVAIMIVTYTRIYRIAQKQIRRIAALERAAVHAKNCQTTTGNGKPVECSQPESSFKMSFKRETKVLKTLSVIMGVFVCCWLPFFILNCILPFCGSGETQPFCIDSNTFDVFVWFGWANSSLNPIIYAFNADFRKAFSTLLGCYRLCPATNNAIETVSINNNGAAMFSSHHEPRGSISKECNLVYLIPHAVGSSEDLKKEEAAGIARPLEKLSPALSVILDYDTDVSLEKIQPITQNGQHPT

Structure (SMILES): CC(C)(C)[C@]1(O)CCN2C[C@H]3c4ccccc4CCc4cccc(c43)[C@@H]2C1 [Butaclamol]
- inhibition at 0.03 µM ([1]; read-out: D2 mitogenesis % inhibition): 98.1 ± 1.9%

Structure (SMILES): COc1ccccc1N1CCN(CCN(C(=O)C2CCCCC2)c2ccccn2)CC1 [WAY 100635]
- Ki [2, 19]: 3000 nM

Structure (SMILES): CN(C)CCc1c[nH]c2ccccc12 [DMT, N,N-dimethyltryptamine]
- Ki (h5-HT2A receptor [3]): 53 ± 10 nM
- EC50 (h5-HT2A receptor [4]): 227 ± 64 nM
- agonist character at h5-HT2A receptor, IP-1 formation (in words) (h5-HT2A receptor [4]): partial agonist
- Ki (h5-HT2A receptor [5]): 175 ± 42 nM

Structure (SMILES): C[C@H](N)Cn1ccc2cc(F)c(Cl)cc21 [Ro60-0175]
- Ki [2, 19]: 7.3 ± 1.6 nM

Structure (SMILES): NCCc1c[nH]c2ccc(O)cc12 [5-HT, serotonin]
- effect on IP-1 accumulation in nontransfected cells (in words) [6]: no effect

Structure (SMILES): COc1cc(CC(C)N)c(OC)cc1C (centres unmarked) [DOM, 2,5-dimethoxy-4-methylamphetamine]
- Ki (h5-HT2A receptor [3]): 2.06 ± 0.52 nM
- EC50 (h5-HT2A receptor [4]): 24.7 ± 8.5 nM
- agonist character at h5-HT2A receptor, IP-1 formation (in words) (h5-HT2A receptor [4]): full agonists
- Ki (h5-HT2A receptor [5]): 13.7 ± 6 nM
- Ratio ketanserin/DOI Ki (h5-HT2A receptor [5]; h5-HT2A, Ki [3H]ketanserin over Ki [125I]DOI): 6.65 ^**
- Ki [7]: 14200 nM
- Ki [8]: 4.3 ± 1.2 nM

Structure (SMILES): O[C@H](c1cc(C(F)(F)F)nc2c(C(F)(F)F)cccc12)[C@@H]1CCCCN1 [(+)-Mefloquine]
- Ki (human D4.4 receptor; [20]): > 10 µM
- effect on IP-1 accumulation in nontransfected cells (in words) [6]: no effect
- antagonist activity at D3 receptor, mitogenesis (in words) ([9]; against quinpirole): fully antagonized
- D3 mitogenesis % inhibition ([9]; antagonism of quinpirole (30 nM)-stimulated mitogenesis): 97.3 ± 2.7%
- agonist activity at hD3 receptor, mitogenesis (in words) [9]: no agonist activity
- antagonist activity at D2 receptor, mitogenesis (in words) ([1]; against quinpirole): no antagonist activity
- agonist activity at hD2 receptor, mitogenesis (in words) ([1]; compared to quinpirole): no agonist activity
- Ki [10, 21]: > 10 µM

Structure (SMILES): OC(c1cc(C(F)(F)F)nc2c(C(F)(F)F)cccc12)C1CCCCN1 (single isomer, unassigned; (-)) [(−)-Mefloquine]
- Ki (human D4.4 receptor; [20]): > 10 µM
- Ki [10, 21]: > 10 µM

Structure (SMILES): Oc1cc2c(cc1O)C(c1ccccc1)CNCC2 (centres unmarked) [SKF 38393, 1-phenyl-2,3,4,5-tetrahydro-1H-3-benzazepine-7,8-diol]
- Ki (human D4.4 receptor): 28 ± 13 µM
- Ki [11]: 4300 ± 1800 nM

Structure (SMILES): Cc1cc2c(cc1Cl)N(C(=O)Nc1ccc(Oc3cccnc3C)nc1)CC2 [SB242087]
- IC50 (h5-HT2C receptor): 0.167 ± 0.061 nM
- h5-HT2C IP1 formation % inhibition (h5-HT2C receptor): 93.7 ± 5.5%
- Ki [2]: 11.4 ± 4 nM
- Ki [7]: > 9300 nM
- Ki [8]: 120 ± 32 nM

Structure (SMILES): OC(c1cc(C(F)(F)F)nc2c(C(F)(F)F)cccc12)C1CCCCN1 (stereo not drawn) [mefloquine, [(R*, S*)-2,8-bis(trifluoromethyl)quinolin-4-yl]-(2-piperidyl)methanol]
- free mefloquine in brain, translated from brain levels [12]: 100 to 135 nM
- Cmax ([13]; conversion of 1018 μg/L): ~2600 nM
- Cmax [13]: 1018 ng/mL
- increase of IP-1 above basal activity in transfected cells (h5-HT2A receptor [4]; HEK-h5-HT2A and HEK-h5-HT2C transfected cells together, 100 μM (+)mefloquine, Fig 2c): 3–5 fold

Structure (SMILES): CN1CCc2cc(Cl)c(O)cc2C(c2ccccc2)C1 (centres unmarked) [SCH23390, 7-chloro-3-methyl-1-phenyl-1,2,4,5-tetrahydro-3-benzazepin-8-ol]
- Ki (human D4.4 receptor): 9.7 ± 1.1 µM
- Ki [10]: 0.887 ± 0.017 µM

Structure (SMILES): CCN(CC)C(=O)[C@@H]1C=C2c3cccc4[nH]cc(c34)C[C@H]2N(C)C1 [LSD, lysergic acid diethylamide]
- Ki [14]: 273 ± 89 nM
- Ki (human D4.4 receptor; read-out: D4.4 [3H]YM 09151-2 Ki (nM) ± SEM): 0.33 ± 0.12 µM
- Ki ([15]; read-out: Norepinephrine transporter, inhibition of [125I]RTI-55 binding Ki (nM) ± SEM): 5600 nM
- effect on IP-1 accumulation in nontransfected cells (in words) [6]: no effect
- agonist character at h5-HT2A receptor, IP-1 formation (in words) (h5-HT2A receptor [4]): full agonists
- agonist activity at hD3 receptor, mitogenesis (in words) [9]: full agonist
- D3 mitogenesis % stimulation ([9]; normalized to the maximal stimulation by quinpirole): 104.4 ± 6.1%
- EC50 ([9]; read-out: D3 mitogenesis EC50 (nM) ± SEM (n), agonist mode, NC: the data did not converge): 48 ± 14 nM
- Ki ([11]; read-out: D3 [3H]YM 09151-2 Ki (nM) ± SEM): 27.1 ± 1.3 nM
- D2 mitogenesis % stimulation [1]: 47.9 ± 6.2%
- agonist activity at hD2 receptor, mitogenesis (in words) [1]: partial agonist
- EC50 ([1]; read-out: D2 mitogenesis EC50 (nM) ± SEM (n)): 18.1 nM
- Ki ([10]; read-out: D2 [3H]YM 09151-2 Ki (nM) ± SEM): 0.0388 ± 0.0018 µM

Structure (SMILES): C=C[C@H]1C[N@@]2CC[C@H]1C[C@H]2[C@H](O)c1ccnc2ccc(OC)cc12 [Quinine, (R)-(6-Methoxyquinolin-4-yl)((2S,4S,8R)-8-vinylquinuclidin-2-yl)methanol]
- IC50 [16]: > 10000 nM
- Ki [15]: > 5500 nM
- Ki [17]: > 8300 nM
- IC50 [18]: > 10000 nM

Structure (SMILES): CCN(CC)CCCC(C)Nc1ccnc2cc(Cl)ccc12 (racemic) [Chloroquine, (RS)-N′-(7-chloroquinolin-4-yl)-N, N-diethyl-pentane-1,4-diamine]
- Ki (human D4.4 receptor): > 10 µM
